# Test results from ChEMBL document CHEMBL5150008, “Fragment-Guided Discovery of Pyrazole Carboxylic Acid Inhibitors of the Kelch-like ECH-Associated Protein 1: Nuclear Factor Erythroid 2 Related Factor 2 (KEAP1:NRF2) Protein-Protein Interaction” (J Med Chem, 2021).
# Tests used:
# [1] = Permeability in artificial phospholipid membrane by AMPA based HPLC/UV analysis; format: ADME, cell membranes; conditions: not told; read-out: permeability
# Keap1/Nrf2 [2] = target: T1, Keap1/Nrf2 (Homo sapiens, UniProt Q16236+Q14145); assay: Inhibition of 5'-TAMRA tagged NRF2 (unknown origin)/human recombinant N-terminal Avi tagged KEAP-1 (321 to 609 residues) expressed in Baculovirus system infected in Sf9 cells protein-protein interaction at 0.015 uM by fluorescence polarisation assay relative to control
# Target sequence in this assay (Q14145 whole entry, looked up, the tested form may be a part): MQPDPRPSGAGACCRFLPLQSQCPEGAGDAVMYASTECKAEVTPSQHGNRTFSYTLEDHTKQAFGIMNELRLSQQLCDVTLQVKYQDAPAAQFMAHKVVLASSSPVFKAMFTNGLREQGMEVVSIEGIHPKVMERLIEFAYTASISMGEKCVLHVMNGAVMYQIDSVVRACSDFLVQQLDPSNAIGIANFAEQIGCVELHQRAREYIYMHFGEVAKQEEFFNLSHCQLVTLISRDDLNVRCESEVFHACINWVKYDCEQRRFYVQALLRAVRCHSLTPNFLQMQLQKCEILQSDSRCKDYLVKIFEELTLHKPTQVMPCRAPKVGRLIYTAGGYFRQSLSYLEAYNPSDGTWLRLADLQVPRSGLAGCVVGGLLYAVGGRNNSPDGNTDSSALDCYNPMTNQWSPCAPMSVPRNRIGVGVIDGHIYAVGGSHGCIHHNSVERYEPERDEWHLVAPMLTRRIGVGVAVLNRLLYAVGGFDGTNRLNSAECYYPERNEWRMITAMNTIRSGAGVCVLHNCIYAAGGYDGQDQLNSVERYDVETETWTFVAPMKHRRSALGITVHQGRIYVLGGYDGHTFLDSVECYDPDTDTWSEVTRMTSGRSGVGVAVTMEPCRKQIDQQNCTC
# Target sequence in this assay (Q16236 whole entry, looked up, the tested form may be a part): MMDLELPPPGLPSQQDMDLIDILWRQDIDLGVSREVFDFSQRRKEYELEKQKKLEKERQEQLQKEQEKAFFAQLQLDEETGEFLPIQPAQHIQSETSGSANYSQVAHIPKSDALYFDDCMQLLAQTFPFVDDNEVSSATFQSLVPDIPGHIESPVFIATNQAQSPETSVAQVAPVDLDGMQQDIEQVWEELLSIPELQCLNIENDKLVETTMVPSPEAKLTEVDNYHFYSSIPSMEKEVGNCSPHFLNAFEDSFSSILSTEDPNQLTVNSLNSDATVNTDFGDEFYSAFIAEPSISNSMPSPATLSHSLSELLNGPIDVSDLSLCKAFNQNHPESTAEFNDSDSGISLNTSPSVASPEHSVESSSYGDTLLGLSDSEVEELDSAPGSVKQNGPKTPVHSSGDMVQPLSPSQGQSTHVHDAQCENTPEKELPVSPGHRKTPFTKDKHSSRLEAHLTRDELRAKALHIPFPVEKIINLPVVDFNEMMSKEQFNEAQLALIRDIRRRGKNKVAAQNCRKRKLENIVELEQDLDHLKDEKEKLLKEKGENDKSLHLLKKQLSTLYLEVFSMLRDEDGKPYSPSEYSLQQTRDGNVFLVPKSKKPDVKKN
# [3] = Lipophilicity, logD of compound at pH 2 to 10.5 by reversed-phase HPLC; format: physicochemical
# Keap1/Nrf2 [4] = target: Keap1/Nrf2 (Homo sapiens, UniProt Q14145); assay: (§1) Inhibition of 5'-TAMRA tagged NRF2 (unknown origin)/human recombinant N-terminal Avi tagged KEAP-1 (321 to 609 residues) expressed in Baculovirus system infected in Sf9 cells protein-protein interaction by fluorescence polarisation assay
# Sequence of Keap1/Nrf2 (Homo sapiens, UniProt Q14145) (Q16236 whole entry, the tested form may be a part): as the sequence (Q16236 whole entry, looked up, the tested form may be a part) above
# Sequence of Keap1/Nrf2 (Homo sapiens, UniProt Q14145) (Q14145 whole entry, the tested form may be a part): as the sequence (Q14145 whole entry, looked up, the tested form may be a part) above
# Keap1/Nrf2 [5] = target: T1, Keap1/Nrf2; assay: Inhibition of 5'-TAMRA tagged NRF2 (unknown origin)/human recombinant N-terminal Avi tagged KEAP-1 (321 to 609 residues) expressed in Baculovirus system infected in Sf9 cells protein-protein interaction at 0.03 uM by fluorescence polarisation assay relative to control
# Keap1/Nrf2 [6] = target: T1, Keap1/Nrf2; assay: Inhibition of 5'-TAMRA tagged NRF2 (unknown origin)/human recombinant N-terminal Avi tagged KEAP-1 (321 to 609 residues) expressed in Baculovirus system infected in Sf9 cells protein-protein interaction at 0.1 uM by fluorescence polarisation assay relative to control
# Target sequence in this assay (Q14145 whole entry, looked up, the tested form may be a part): as above
# Target sequence in this assay (Q16236 whole entry, looked up, the tested form may be a part): as the sequence (Q16236 whole entry, looked up, the tested form may be a part) above
# Keap1/Nrf2 [7] = target: T1, Keap1/Nrf2; assay: Inhibition of 5'-TAMRA tagged NRF2 (unknown origin)/human recombinant N-terminal Avi tagged KEAP-1 (321 to 609 residues) expressed in Baculovirus system infected in Sf9 cells protein-protein interaction at 0.05 uM by fluorescence polarisation assay relative to control
# Target sequence in this assay (Q14145 whole entry, looked up, the tested form may be a part): as the sequence (Q14145 whole entry, looked up, the tested form may be a part) above
# Target sequence in this assay (Q16236 whole entry, looked up, the tested form may be a part): as the sequence (Q16236 whole entry, looked up, the tested form may be a part) above
# Keap1/Nrf2 [8] = target: T1, Keap1/Nrf2; assay: as §1
# Target sequence in this assay (Q14145 whole entry, looked up, the tested form may be a part): as the sequence (Q14145 whole entry, looked up, the tested form may be a part) above
# Target sequence in this assay (Q16236 whole entry, looked up, the tested form may be a part): as the sequence (Q16236 whole entry, looked up, the tested form may be a part) above
Papp [1] [×10⁻⁶ cm/s],chromatographic logD [3],IC50 (Keap1/Nrf2 [4]; read-out: IC50) [µM],Structure (SMILES),also measured
,,10,CN(C)C(=O)c1cccc(-c2cccc(-n3ncc(C(=O)O)c3C(C)(C)C)n2)c1,
< 0.3,0.8,0.041,CN(C)C(=O)c1cccc(-c2cccc(-n3ncc(C(=O)O)c3C3CC3c3cn(C)nn3)c2)c1 (racemic),IC50 (Keap1/Nrf2 [4]; read-out: pIC50 (converted)): < 1 µM; inhibition (Keap1/Nrf2 [5]): 53%
,,3.7,CN(C)C(=O)c1cncc(-c2cccc(-n3ncc(C(=O)O)c3C(F)(F)F)c2)c1,
,,2,CN(C)C(=O)c1cccc(-c2cccc(-n3ncc(C(=O)O)c3-c3cccnc3)c2)c1,
,,0.48,CN(C)C(=O)c1cccc(-c2cccc(-n3ncc(C(=O)O)c3C(F)(F)F)c2)c1,
< 0.3,1.4,0.37,CN(C)C(=O)c1cccc(-c2cccc(-n3ncc(C(=O)O)c3C3CC3)c2)c1,IC50 (Keap1/Nrf2 [4]; read-out: pIC50 (converted)): < 1 µM
,,3.5,CC(=O)N1CCC(c2c(C(=O)O)cnn2-c2cccc(-c3cccc(C(=O)N(C)C)c3)c2)CC1,
,,7.5,CN(C)C(=O)c1ccnc(-c2cccc(-n3ncc(C(=O)O)c3C(F)(F)F)c2)c1,
< 0.3,1.3,> 10,CN(C)C(=O)c1cccc(-c2cccc(-n3ncc(C(=O)O)c3C3CC3)c2)c1F,IC50 (Keap1/Nrf2 [4]; read-out: pIC50 (converted)): < 1 µM
,,1.8,CN(C)C(=O)c1cccc(-c2cccc(-n3ncc(C(=O)O)c3C3CCCCC3)c2)c1,
0.3,2.2,,CN(CC1CC1)C(=O)c1cccc(-c2cccc(-n3ncc(C(=O)O)c3C3CC3)c2)c1F,IC50 (Keap1/Nrf2 [4]; read-out: pIC50 (converted)): < 1 µM; inhibition (Keap1/Nrf2 [6]): 50%
,,1,CN(C)C(=O)c1cccc(-c2cccc(-n3ncc(C(=O)O)c3C3CCCC3)c2)c1,
,,1,CN(C)C(=O)c1cccc(-c2cccc(-n3ncc(C(=O)O)c3C(F)(F)F)n2)c1,

# Further lines, the molecule ahead of its results:
Structure (SMILES),Papp [1] [×10⁻⁶ cm/s],chromatographic logD [3],IC50 (Keap1/Nrf2 [4]; read-out: IC50) [µM],also measured
CCC[C@@H]1CCCCN1C(=O)c1cccc(-c2cccc(-n3ncc(C(=O)O)c3[C@H]3C[C@@H]3c3cn(C)nn3)c2)c1,1.6,3,,inhibition (Keap1/Nrf2 [2]): 98%
CCCC1CCCCN1C(=O)c1cccc(-c2cccc(-n3ncc(C(=O)O)c3C3CC3c3cccnc3)c2)c1 (mixture of isomers),13,3.9,0.221,
O=C(O)c1cnn(-c2cccc(-c3cccc(CNS(=O)(=O)c4ccccc4)c3)c2)c1C(F)(F)F,,,45,
O=C(O)c1cnn(-c2ccccn2)c1C(F)(F)F,,,> 1000,
CCCC1CCCCN1C(=O)c1cccc(-c2cccc(-n3ncc(C(=O)O)c3C3CC3c3ccccn3)c2)c1 (mixture of isomers),4,3.1,,inhibition (Keap1/Nrf2 [5]): 42%
O=C(O)c1cnn(-c2cccc(-c3cccc(C(=O)N4CCCC5(CCCC5)C4)c3F)c2)c1C1CC1,1.2,3.7,,inhibition (Keap1/Nrf2 [2]): 50%
CCCC[C@@H]1CCCN1C(=O)[C@H]1CCC[C@@H](c2cccc(-n3ncc(C(=O)O)c3C3CC3)c2)C1,1.6,4.3,,inhibition (Keap1/Nrf2 [2]): 81%
O=C(O)c1cnn(-c2cccc(NS(=O)(=O)c3ccccc3)c2)c1C(F)(F)F,,,4.6,
CCCCC1CCCN1C(=O)C1CCCC(c2cccc(-n3ncc(C(=O)O)c3C3CC3)c2)C1 (mixture of isomers),2.7,4.4,,inhibition (Keap1/Nrf2 [5]): 64%
CCC[C@@H]1CCCCN1C(=O)c1cccc(-c2cccc(-n3ncc(C(=O)O)c3C3CC3)c2)c1F,2.7,3.5,,inhibition (Keap1/Nrf2 [2]): 52%
CC(C)Oc1cccc(-c2cccc(-n3ncc(C(=O)O)c3C(F)(F)F)n2)c1,,,8.5,
CCC[C@H]1CCCCN1C(=O)c1cccc(-c2cccc(-n3ncc(C(=O)O)c3C3CC3)c2)c1F,6.3,3.5,0.06,
O=C(O)c1cnn(-c2cccc(-c3cccc(C(=O)N4CCCCC4)c3F)c2)c1C1CC1,< 0.3,2.3,0.12,IC50 (Keap1/Nrf2 [4]; read-out: pIC50 (converted)): < 1 µM
O=C(O)c1cnn(-c2cccc(-c3cccc(C(=O)N(CC4CC4)CC4CC4)c3F)c2)c1C1CC1,1.6,3.5,,inhibition (Keap1/Nrf2 [5]): 46%
CN(C)C(=O)[C@H]1CCC[C@@H](c2cccc(-n3ncc(C(=O)O)c3C3CC3)c2)C1 (racemic),< 0.3,1.7,0.24,IC50 (Keap1/Nrf2 [4]; read-out: pIC50 (converted)): < 1 µM
O=C(O)c1cnn(-c2cccc([C@@H]3CCC[C@H](C(=O)N4CCCCC4)C3)c2)c1C1CC1 (racemic),< 0.3,2.7,0.3,
CCCC1CCCCN1C(=O)c1cccc(-c2cccc(-n3ncc(C(=O)O)c3C3CC3c3cccnn3)c2)c1 (mixture of isomers),1.7,2.9,,inhibition (Keap1/Nrf2 [2]): 50%
O=C(O)c1cnn(-c2ccccc2)c1C(F)(F)F,,,> 300,
CCCC1CCCCN1C(=O)c1cccc(-c2cccc(-n3ncc(C(=O)O)c3C3CC3c3cn(C)nn3)c2)c1 (mixture of isomers),3.7,2.9,,inhibition (Keap1/Nrf2 [2]): 84%
CCCC1CCCCN1C(=O)C1CCCC(c2cccc(-n3ncc(C(=O)O)c3C3CC3)c2)C1 (mixture of isomers),1.1,4.1,0.23,
CCCC1COCCN1C(=O)c1cccc(-c2cccc(-n3ncc(C(=O)O)c3C3CC3)c2)c1F (stereo not given),1.1,2.5,,inhibition (Keap1/Nrf2 [7]): 72%; inhibition (Keap1/Nrf2 [5]): 60%
CCC[C@@H]1CCCCN1C(=O)c1cccc(-c2cccc(-n3ncc(C(=O)O)c3[C@@H]3C[C@H]3c3cn(C)nn3)c2)c1,1.7,3,,IC50 (Keap1/Nrf2 [8]): 0.56 µM
